Results on 24 compounds are retold here after ChEMBL document CHEMBL1156596, “Overcoming undesirable CYP1A2 inhibition of pyridylnaphthalene-type aldosterone synthase inhibitors: influence of heteroaryl derivatization on potency and selectivity” (J Med Chem, 2008).

Each structure is given as a SMILES string.

Series [1] deals with T1, CYP1A2 (Homo sapiens, UniProt P05177).
T1 sequence (P05177 whole entry): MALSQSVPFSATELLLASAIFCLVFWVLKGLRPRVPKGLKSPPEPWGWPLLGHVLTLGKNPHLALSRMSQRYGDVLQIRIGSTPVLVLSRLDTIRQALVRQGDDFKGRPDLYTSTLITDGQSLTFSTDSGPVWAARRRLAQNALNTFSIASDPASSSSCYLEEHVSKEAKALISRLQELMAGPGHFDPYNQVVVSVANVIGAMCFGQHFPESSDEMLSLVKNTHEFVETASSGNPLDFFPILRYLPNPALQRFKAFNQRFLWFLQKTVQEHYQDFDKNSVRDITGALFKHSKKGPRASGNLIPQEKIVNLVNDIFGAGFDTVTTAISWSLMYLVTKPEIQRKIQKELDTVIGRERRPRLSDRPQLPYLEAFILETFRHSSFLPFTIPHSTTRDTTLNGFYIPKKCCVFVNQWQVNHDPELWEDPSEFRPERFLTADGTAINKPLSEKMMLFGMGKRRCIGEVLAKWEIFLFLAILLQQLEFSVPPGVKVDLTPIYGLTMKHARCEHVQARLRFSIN
Put plainly: Inhibition of human recombinant CYP1A2 expressed in insect microsomes at 2 uM. The class given is ADME, Microsome.

Series [2] concerns the target T2, Cytochrome P450 11B2, mitochondrial (Homo sapiens, UniProt P19099).
T2 sequence (P19099 whole entry): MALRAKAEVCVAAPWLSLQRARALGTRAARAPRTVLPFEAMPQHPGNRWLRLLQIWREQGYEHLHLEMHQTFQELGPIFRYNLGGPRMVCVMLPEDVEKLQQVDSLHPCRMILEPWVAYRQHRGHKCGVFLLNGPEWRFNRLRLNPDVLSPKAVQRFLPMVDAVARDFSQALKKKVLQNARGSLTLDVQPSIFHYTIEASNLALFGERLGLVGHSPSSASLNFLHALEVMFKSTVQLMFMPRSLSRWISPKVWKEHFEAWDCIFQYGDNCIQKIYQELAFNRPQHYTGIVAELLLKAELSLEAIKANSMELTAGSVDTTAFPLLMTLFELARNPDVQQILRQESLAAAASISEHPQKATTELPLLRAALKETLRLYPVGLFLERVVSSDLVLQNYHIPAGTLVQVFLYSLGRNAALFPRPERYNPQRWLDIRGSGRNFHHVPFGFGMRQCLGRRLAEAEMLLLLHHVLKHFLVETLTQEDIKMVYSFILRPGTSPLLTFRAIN

Series [3] deals with T3, Cytochrome P450 11B1, mitochondrial (Homo sapiens, UniProt P15538).
T3 sequence (P15538 whole entry): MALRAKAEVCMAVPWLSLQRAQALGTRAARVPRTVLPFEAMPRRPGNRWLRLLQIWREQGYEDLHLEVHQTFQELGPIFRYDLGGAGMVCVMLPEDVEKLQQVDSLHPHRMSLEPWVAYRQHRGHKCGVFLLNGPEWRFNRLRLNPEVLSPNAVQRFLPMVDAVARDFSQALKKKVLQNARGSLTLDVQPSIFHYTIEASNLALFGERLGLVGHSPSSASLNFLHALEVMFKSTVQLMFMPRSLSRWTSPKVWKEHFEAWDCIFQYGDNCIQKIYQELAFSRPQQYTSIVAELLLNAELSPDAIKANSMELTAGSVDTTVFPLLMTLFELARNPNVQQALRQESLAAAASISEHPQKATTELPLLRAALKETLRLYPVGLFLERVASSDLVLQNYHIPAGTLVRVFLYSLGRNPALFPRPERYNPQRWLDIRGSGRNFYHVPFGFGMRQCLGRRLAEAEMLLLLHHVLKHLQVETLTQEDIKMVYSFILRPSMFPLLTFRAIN

For series [4], the species on record is Homo sapiens. Briefly: Selectivity ratio of IC50 for human CYP11B1 to IC50 for human CYP11B2.

For orientation: inhibition means the drop in the measured response relative to a control, in per cent. In general, IC50 refers to the concentration that inhibits the measured activity by half. On to `COc1ccc2c(c1)CC(C)C(c1cncc3ccccc13)=C2` (stereo not drawn), for which the inhibition at 2 µM in series [1] was 6%. Besides, the IC50 in series [2] amounted to 0.5 nM; in series [3] it was 64 nM. Also, in series [4], the Ratio IC50 was 128.
On to `COc1ccc2cc(-c3cncc(O)c3)ccc2c1`, for which the inhibition at 2 µM in series [1] came to 93%. The IC50 in series [2] turned out to be 94 nM; in series [3], 8920 nM. For the same compound, the Ratio IC50 in series [4] came out at 95.
As for `COc1ccc2cc(-c3cncc(C(C)O)c3)ccc2c1` (stereo not drawn), in series [1], the inhibition at 2 µM was found to be 78%. In addition, the IC50 in series [2] worked out at 0.5 nM; in series [3] it was 99 nM. Further, the Ratio IC50 in series [4] is 198.
For `COCc1cncc(-c2ccc3cc(OC)ccc3c2)c1`, in that order: 83%, 0.2 nM, 31 nM and 155.
For `COc1ccc2cc(-c3cnccc3C)ccc2c1`, in that order: 98%, 0.8 nM, 114 nM and 143.
In the case of `COc1ccc2cc(-c3cncc(-c4ccccc4)c3)ccc2c1`, the IC50 in series [2] came out at 4.8 nM; in series [3] it was 151 nM. Also, the Ratio IC50 in series [4] was determined as 32.
As for `COc1cncc(-c2cc3ccc(OC)cc3cc2C)c1`, the inhibition at 2 µM in series [1] was determined as 91%. In addition, the results for the IC50 in series [2] and in series [3] were 3.8 nM and 875 nM, respectively. For the same compound, the Ratio IC50 in series [4] turned out to be 230.
In the same order, the values of `COc1ccc2cc(-c3cncc4ccccc34)c(C)cc2c1` are 45%, 3.1 nM, 843 nM and 272.
For the compound `COc1ccc2cc(-c3cncc(C(C)OC)c3)ccc2c1` (stereo not drawn), the concentration for half-maximal inhibition (IC50) in series [2] was 0.2 nM; in series [3], 10 nM. Also, the Ratio IC50 in series [4] came out at 50.
For the compound `COC(=O)c1cncc(-c2ccc3cc(OC)ccc3c2)c1`, the IC50 turned out to be 0.8 nM in series [2] and 15 nM in series [3]. The Ratio IC50 in series [4] was found to be 19.
Take `N#Cc1ccc2c(c1)CCC(c1cccnc1)=C2`: the inhibition at 2 µM in series [1] amounted to 91%. Besides, the IC50 came out at 4.5 nM in series [2] and 461 nM in series [3]. Besides, in series [4], the Ratio IC50 turned out to be 103.
In the case of `COc1ccc2cc(-c3cncc(C(N)=O)c3)ccc2c1`, the half-maximal inhibitory concentration (IC50) in series [2] turned out to be 94 nM; in series [3], 41600 nM. Moreover, the Ratio IC50 in series [4] turned out to be 442.
Consider `COc1cncc(C2=Cc3ccc(OC)cc3CC2C)c1` (stereo not drawn), for which the inhibition at 2 µM in series [1] was determined as 18%. For the same compound, the results for the 50% inhibitory concentration (IC50) in series [2] and in series [3] were 1.2 nM and 100 nM, respectively. In addition, the Ratio IC50 in series [4] was 83.
In the case of `Cc1nc2c([nH]1)c(=O)n(C)c(=O)n2Cc1ccco1` [FURAFYLLINE], in series [1], the inhibition at 2 µM was 55%.
Take `COc1ccc2c(c1)CCC(c1cccnc1)=C2`: in series [1], the inhibition at 2 µM is 98%.
`COc1ccc2c(c1)CC(C)C(c1cccnc1)=C2` (stereo not drawn): the inhibition at 2 µM in series [1] worked out at 73%. The compound further gave an IC50 in series [2] of 3.3 nM. Also, the Ratio IC50 in series [4] turned out to be 79.
Take `COC(=O)Cc1cncc(-c2ccc3cc(OC)ccc3c2)c1`: the IC50 was 6.9 nM in series [2] and 199 nM in series [3]. For the same compound, the Ratio IC50 in series [4] was determined as 29.
Take `COc1ccc2cc(-c3cccnc3)c(C)cc2c1`: the inhibition at 2 µM in series [1] is 93%. Also, the figures for the IC50 in series [2] and in series [3] were 7 nM and 1050 nM, respectively. Also, the Ratio IC50 in series [4] amounted to 150.
With `CCOc1cncc(-c2ccc3cc(OC)ccc3c2)c1`, the inhibition at 2 µM in series [1] is 85%. Further, the values for the IC50 in series [2] and in series [3] were 5.1 nM and 373 nM, respectively. Moreover, in series [4], the Ratio IC50 is 73.
For `COc1ccc2cc(-c3cncc(CC(=O)O)c3)ccc2c1`, the values for the IC50 in series [2] and in series [3] were 1220 nM and 37800 nM, respectively. For the same compound, the Ratio IC50 in series [4] amounted to 31.
On to `Cc1ccncc1-c1ccc2cc(C#N)ccc2c1`, for which, in series [1], the inhibition at 2 µM was found to be 86%. Also, the IC50 in series [2] was 0.6 nM; in series [3], 52 nM. The Ratio IC50 in series [4] came to 87.
`COc1ccc2cc(-c3cnccc3CO)ccc2c1`: the inhibition at 2 µM in series [1] turned out to be 92%. Besides, the IC50 in series [2] amounted to 22 nM; in series [3] it was 1760 nM. Besides, the Ratio IC50 in series [4] stood at 80.
For `COc1ccc2cc(-c3cncc(CO)c3)ccc2c1`, in that order: 93%, 9.1 nM, 614 nM and 68.
For `COCc1ccncc1-c1ccc2cc(OC)ccc2c1`, the inhibition at 2 µM in series [1] came to 97%. The IC50 in series [2] was found to be 2.2 nM; in series [3] it was 435 nM. Besides, the Ratio IC50 in series [4] was found to be 198.
